The subject of series [1] is THP-1. As to the kind of experiment: Induction of apoptosis against human THP-1 cells assessed as viable cells at 10 uM measured for 24 hrs by Annexin V-FITC/propidium iodide staining based flow cytometry (reference value: 85.6%). The class given is functional. The following applies: read-out: Activity. On the technique in general: A flow cytometer gives signals particle by particle.

A further series has as its system T47D. The series is described as follows: Cytotoxicity against human T47D cells assessed as reduction in cell viability incubated for 24 hrs by CCK-8 assay. In kind it is functional, cell-based. For orientation: Tetrazolium dyes change colour on reduction, which living cells bring about.
Series [2] concerns the target Phosphatidylinositol 4,5-bisphosphate 3-kinase catalytic subunit beta isoform (Homo sapiens, UniProt P42338). As to the kind of experiment: Antagonist activity at PI3Kbeta (unknown origin) using PIP2 as substrate in presence of ATP incubated for 30 to 60 mins by ADP-glo based luminescence assay.
For series [3], the target named is T1, Serine/threonine-protein kinase AKT (Homo sapiens) (UniProt P31751+Q9Y243+P31749). As to the kind of experiment: Inhibition of AKT phosphorylation in human Jurkat cells incubated for 1 to 12 hrs by Western blot analysis relative to control. The following applies: dose 0.1-10 µM, time 1-12 hrs. The class given is cell-based. In general terms: In western blotting, separated proteins are transferred to a membrane and probed.

The subject of a further series is MCF7. The series is described as follows: Cytotoxicity against human MCF7 cells assessed as reduction in cell viability incubated for 24 hrs by CCK-8 assay. The following applies: MCF7, 24 h. In kind it is functional, cell-based.
The target of series [4] is Phosphatidylinositol 4,5-bisphosphate 3-kinase catalytic subunit gamma isoform (Homo sapiens, UniProt P48736). The series is described as follows: Antagonist activity at PI3Kgamma (unknown origin) assessed as inhibition rate at 20 nM using PIP2 as substrate in presence of ATP incubated for 30 to 60 mins by ADP-glo based luminescence assay relative to control. The settings on record: filed as antagonist, time 30-60 min.

Series [5] can be described thus: Cytotoxicity against mouse L929 cells assessed as reduction in cell viability incubated for 24 hrs by CCK-8 assay. In kind it is toxicity, cell-based.
Series [6] deals with THP-1. The series is described as follows: Induction of apoptosis against human THP-1 cells assessed as early apoptotic cells at 0.1 uM measured for 24 hrs by Annexin V-FITC/propidium iodide staining based flow cytometry (reference value: 10.3%). In kind it is functional.
The subject of a further series is RAW264.7. The series is described as follows: Cytotoxicity against mouse RAW264.7 cells assessed as reduction in cell viability incubated for 24 hrs by CCK-8 assay. In kind it is functional, cell-based. The settings on record: RAW264.7, 24 h.
Series [7] deals with Jurkat. As to the kind of experiment: Induction of apoptosis against human Jurkat cells assessed as viable cells at 1 uM measured for 24 hrs by Annexin V-FITC/propidium iodide staining based flow cytometry (reference value: 94.2 %). The following applies: read-out: Activity. In kind it is functional.
The subject of series [8] is Jurkat. The series is described as follows: Induction of apoptosis against human Jurkat cells assessed as early apoptotic cells at 1 uM measured for 24 hrs by Annexin V-FITC/propidium iodide staining based flow cytometry (reference value: 5.76%). The class given is functional.
In series [9] the test system is Jurkat. As to the kind of experiment: Induction of apoptosis against human Jurkat cells assessed as necrotic cells at 1 uM measured for 24 hrs by Annexin V-FITC/propidium iodide staining based flow cytometry (reference value: 0.00%). In kind it is functional.
A further series has as its system MDA-MB-231. The series is described as follows: Cytotoxicity against human MDA-MB-231 cells assessed as reduction in cell viability incubated for 24 hrs by CCK-8 assay. The class given is functional, cell-based. The settings on record: MDA-MB-231, 24 h.
Series [10] relates to Jurkat. The series is described as follows: Cytotoxicity against human Jurkat cells assessed as reduction in cell viability incubated for 24 hrs by CCK-8 assay. In kind it is functional, cell-based.
For series [11], the system named is THP-1. As to the kind of experiment: Induction of apoptosis against human THP-1 cells assessed as late apoptotic cells at 0.1 uM measured for 24 hrs by Annexin V-FITC/propidium iodide staining based flow cytometry (reference value: 3.70%). In kind it is functional.
Series [12] concerns Jurkat. The series is described as follows: Induction of apoptosis against human Jurkat cells assessed as late apoptotic cells at 1 uM measured for 24 hrs by Annexin V-FITC/propidium iodide staining based flow cytometry (reference value: 0.00%). The class given is functional.
Series [13] relates to Jurkat. As to the kind of experiment: Induction of apoptosis against human Jurkat cells assessed as necrotic cells at 10 uM measured for 24 hrs by Annexin V-FITC/propidium iodide staining based flow cytometry (reference value: 0.00%). The class given is functional.
In series [14] the target is T1, Serine/threonine-protein kinase AKT (Homo sapiens). As to the kind of experiment: Inhibition of AKT phosphorylation in human THP-1 cells at 1 uM incubated for 1 to 12 hrs by Western blot analysis relative to control. The settings on record: time 1-12 hrs. In kind it is cell-based.
The target of series [15] is T2, Phosphatidylinositol 4,5-bisphosphate 3-kinase catalytic subunit delta isoform (Homo sapiens) (UniProt O00329).
T2 sequence (whole entry): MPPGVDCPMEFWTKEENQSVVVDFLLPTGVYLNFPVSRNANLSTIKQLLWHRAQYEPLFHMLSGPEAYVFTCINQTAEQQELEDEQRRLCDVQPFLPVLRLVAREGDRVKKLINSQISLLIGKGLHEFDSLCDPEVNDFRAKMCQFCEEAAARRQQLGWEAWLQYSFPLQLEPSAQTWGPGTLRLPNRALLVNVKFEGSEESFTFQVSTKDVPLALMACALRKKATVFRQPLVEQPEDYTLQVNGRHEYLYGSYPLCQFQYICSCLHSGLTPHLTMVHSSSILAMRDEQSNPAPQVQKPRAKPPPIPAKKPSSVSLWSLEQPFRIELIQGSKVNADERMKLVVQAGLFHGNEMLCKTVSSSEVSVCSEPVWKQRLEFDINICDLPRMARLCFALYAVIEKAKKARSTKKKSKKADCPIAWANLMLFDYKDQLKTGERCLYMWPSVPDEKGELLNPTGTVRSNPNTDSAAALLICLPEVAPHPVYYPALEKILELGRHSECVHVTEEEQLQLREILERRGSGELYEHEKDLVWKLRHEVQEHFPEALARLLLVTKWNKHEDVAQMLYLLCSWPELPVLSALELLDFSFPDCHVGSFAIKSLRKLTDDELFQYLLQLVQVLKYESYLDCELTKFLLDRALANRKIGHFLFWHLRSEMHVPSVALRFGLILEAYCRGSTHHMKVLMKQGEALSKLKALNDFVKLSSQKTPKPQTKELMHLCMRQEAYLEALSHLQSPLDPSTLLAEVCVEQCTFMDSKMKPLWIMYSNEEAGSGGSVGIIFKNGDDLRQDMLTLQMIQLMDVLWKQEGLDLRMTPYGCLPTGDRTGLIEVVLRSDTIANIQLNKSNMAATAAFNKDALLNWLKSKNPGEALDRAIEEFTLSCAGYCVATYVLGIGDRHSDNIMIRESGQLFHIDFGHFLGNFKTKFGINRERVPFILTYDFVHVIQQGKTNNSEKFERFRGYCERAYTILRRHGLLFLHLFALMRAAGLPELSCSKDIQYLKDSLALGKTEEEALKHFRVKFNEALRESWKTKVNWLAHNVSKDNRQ
The series is described as follows: Antagonist activity at PI3Kdelta (unknown origin) assessed as inhibition rate at 20 nM using PIP2 as substrate in presence of ATP incubated for 30 to 60 mins by ADP-glo based luminescence assay relative to control. The following applies: time 30-60 min.

A further series relates to HepG2. The series is described as follows: Cytotoxicity against human HepG2 cells assessed as reduction in cell viability incubated for 24 hrs by CCK-8 assay. The class given is functional, cell-based. The following applies: HepG2, 24 h.
Series [16] has as its system THP-1. The series is described as follows: Induction of apoptosis against human THP-1 cells assessed as necrotic cells at 10 uM measured for 24 hrs by Annexin V-FITC/propidium iodide staining based flow cytometry (reference value: 0.316%). The class given is functional.
In series [17] the test system is THP-1. As to the kind of experiment: Induction of apoptosis against human THP-1 cells assessed as viable cells at 0.1 uM measured for 24 hrs by Annexin V-FITC/propidium iodide staining based flow cytometry (reference value: 85.6%). The class given is functional. The following applies: read-out: Activity.
In series [18] the test system is Jurkat. As to the kind of experiment: Induction of apoptosis against human Jurkat cells assessed as late apoptotic cells at 10 uM measured for 24 hrs by Annexin V-FITC/propidium iodide staining based flow cytometry (reference value: 0.00%). In kind it is functional.

Structures are written as SMILES. Active and inactive are the calls of the source. No cut-off for these calls is given here.

The record followed here is ChEMBL document CHEMBL5252648, “Design, synthesis and bioactivity evaluation of a series of quinazolinone derivatives as potent PI3Kγ antagonist” (Bioorg Med Chem, 2023).

T1 sequence (P31749 whole entry, looked up): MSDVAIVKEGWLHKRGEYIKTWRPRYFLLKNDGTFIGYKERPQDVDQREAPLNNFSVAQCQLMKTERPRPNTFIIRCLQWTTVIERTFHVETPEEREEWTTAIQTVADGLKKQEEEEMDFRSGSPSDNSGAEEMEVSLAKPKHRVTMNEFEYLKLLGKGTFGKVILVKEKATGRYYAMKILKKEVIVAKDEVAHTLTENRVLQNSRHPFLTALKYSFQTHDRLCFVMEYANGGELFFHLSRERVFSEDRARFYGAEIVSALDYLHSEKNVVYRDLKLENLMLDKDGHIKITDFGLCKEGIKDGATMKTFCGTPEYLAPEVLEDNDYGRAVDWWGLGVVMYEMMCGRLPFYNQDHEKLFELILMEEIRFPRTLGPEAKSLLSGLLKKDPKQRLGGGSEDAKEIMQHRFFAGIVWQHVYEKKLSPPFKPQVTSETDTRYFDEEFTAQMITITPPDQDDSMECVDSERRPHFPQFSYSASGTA
T1 sequence (P31751 whole entry, looked up): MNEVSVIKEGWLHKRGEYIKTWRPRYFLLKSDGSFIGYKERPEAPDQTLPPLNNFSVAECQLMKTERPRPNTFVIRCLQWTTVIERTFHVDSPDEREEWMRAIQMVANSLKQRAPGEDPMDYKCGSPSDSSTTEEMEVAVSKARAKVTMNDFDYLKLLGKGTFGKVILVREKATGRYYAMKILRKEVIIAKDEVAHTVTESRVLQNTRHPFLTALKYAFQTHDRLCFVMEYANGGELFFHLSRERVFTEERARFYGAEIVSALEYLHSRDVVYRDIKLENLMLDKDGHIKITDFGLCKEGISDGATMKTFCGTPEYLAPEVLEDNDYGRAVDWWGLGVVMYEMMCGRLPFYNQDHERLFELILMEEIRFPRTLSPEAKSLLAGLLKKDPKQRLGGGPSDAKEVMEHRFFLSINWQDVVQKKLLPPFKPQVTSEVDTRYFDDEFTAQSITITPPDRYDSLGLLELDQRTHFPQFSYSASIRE
T1 sequence (Q9Y243 whole entry, looked up): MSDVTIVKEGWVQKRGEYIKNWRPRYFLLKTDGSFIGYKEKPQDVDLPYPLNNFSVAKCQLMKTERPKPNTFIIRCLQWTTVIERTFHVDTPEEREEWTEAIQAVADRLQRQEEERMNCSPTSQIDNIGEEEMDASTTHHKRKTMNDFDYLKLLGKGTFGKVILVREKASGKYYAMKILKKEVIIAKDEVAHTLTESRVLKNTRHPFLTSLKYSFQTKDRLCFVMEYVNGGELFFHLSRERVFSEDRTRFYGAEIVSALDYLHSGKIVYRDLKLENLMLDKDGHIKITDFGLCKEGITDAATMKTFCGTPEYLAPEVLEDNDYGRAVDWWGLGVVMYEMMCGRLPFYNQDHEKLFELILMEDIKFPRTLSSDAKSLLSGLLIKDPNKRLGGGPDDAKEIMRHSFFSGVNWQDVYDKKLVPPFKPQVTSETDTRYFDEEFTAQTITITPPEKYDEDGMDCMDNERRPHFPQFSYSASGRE
Phosphatidylinositol 4,5-bisphosphate 3-kinase catalytic subunit gamma isoform, sequence (P48736 whole entry, looked up, canonical isoform): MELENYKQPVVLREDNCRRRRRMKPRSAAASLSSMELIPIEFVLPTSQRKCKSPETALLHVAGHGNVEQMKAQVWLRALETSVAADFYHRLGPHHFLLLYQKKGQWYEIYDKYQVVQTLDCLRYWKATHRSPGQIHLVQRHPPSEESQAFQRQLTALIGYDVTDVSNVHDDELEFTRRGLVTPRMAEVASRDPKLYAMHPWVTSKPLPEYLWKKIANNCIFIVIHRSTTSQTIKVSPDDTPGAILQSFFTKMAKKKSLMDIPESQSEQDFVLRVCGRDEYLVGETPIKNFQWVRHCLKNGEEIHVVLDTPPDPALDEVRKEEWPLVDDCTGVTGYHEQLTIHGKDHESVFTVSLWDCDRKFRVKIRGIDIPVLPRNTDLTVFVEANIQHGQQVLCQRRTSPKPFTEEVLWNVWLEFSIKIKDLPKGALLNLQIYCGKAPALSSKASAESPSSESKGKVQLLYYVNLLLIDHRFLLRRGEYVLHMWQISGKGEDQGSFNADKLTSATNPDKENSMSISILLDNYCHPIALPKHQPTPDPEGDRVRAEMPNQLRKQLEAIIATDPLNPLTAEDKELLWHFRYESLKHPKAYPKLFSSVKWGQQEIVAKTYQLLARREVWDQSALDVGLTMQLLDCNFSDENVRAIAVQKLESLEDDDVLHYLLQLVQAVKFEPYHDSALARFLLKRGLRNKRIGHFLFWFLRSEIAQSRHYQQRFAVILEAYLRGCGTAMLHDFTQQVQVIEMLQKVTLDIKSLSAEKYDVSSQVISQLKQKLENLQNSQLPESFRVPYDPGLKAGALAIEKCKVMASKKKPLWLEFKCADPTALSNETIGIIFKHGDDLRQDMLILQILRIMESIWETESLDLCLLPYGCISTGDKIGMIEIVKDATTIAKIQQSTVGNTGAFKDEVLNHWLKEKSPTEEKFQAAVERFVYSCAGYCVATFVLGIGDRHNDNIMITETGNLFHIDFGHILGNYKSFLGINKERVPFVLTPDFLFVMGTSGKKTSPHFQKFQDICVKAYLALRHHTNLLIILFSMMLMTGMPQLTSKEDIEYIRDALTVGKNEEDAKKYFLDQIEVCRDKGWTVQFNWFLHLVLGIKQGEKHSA
Phosphatidylinositol 4,5-bisphosphate 3-kinase catalytic subunit beta isoform, sequence (P42338 whole entry, canonical isoform): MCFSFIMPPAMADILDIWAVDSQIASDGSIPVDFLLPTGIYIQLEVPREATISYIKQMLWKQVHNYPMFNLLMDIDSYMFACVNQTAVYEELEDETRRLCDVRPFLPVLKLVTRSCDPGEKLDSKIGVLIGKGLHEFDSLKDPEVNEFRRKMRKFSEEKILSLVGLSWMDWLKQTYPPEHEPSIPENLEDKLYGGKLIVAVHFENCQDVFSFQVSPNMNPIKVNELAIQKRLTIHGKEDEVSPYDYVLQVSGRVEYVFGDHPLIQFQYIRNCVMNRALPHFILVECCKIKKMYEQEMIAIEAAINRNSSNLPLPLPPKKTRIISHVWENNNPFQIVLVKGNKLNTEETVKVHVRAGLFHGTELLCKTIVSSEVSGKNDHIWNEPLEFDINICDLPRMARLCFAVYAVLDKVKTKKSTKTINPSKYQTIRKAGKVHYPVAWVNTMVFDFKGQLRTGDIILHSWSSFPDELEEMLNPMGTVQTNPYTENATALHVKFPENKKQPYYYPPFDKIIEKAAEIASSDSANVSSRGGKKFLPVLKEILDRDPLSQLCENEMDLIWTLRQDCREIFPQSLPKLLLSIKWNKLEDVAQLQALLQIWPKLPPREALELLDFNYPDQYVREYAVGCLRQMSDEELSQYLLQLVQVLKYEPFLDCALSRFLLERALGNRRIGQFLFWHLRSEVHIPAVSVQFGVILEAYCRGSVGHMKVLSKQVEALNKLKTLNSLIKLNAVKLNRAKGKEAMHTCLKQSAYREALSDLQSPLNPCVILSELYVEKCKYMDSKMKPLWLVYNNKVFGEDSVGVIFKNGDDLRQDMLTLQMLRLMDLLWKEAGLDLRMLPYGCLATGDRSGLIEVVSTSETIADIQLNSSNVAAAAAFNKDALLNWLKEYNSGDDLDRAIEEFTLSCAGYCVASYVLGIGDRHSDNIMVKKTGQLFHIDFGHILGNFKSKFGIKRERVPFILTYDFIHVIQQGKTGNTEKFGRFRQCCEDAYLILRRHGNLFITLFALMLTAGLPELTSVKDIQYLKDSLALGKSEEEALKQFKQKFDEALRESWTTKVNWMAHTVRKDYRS

By IC50 is commonly meant the point on the concentration scale where inhibition reaches its midpoint. The term inhibition denotes the relative decrease from the control value, in per cent. In the case of `COc1ccc(C#Cc2cccc3cc(C(C)Nc4ncnc5[nH]cnc45)n(-c4ccccc4)c(=O)c23)cc1` (stereo not drawn), the viability at 10 µM with THP-1 [1] turned out to be 60.7%. For the same molecule, the IC50 in the series on T47D is more than 100 µM; in [2] it was 109 nM; in the series with MCF7 it was more than 100 µM; in the series on RAW264.7, 4.54 µM; with MDA-MB-231 it was 6.6 µM; in the series with Jurkat [10] it was 2410 nM. Besides, in the series with HepG2, the IC50 is more than 100 µM. Moreover, the inhibition entry is “Dose-Dependent Effect” in [3], 53% in series [4] and 16% in [15]. Moreover, in series [5], the IC50 at 24 h was more than 100 µM. The Activity worked out at 25.3% with THP-1 [6]; 17.7% in the series on Jurkat [8]; 0% in the series with Jurkat [9]; 7.85% with THP-1 [11]; 0.042% in the series with Jurkat [12]; 0.016% in the series with Jurkat [13]. Also, the Activity in the series on THP-1 [16] stood at 0.053%; in the series on Jurkat [18] it was 0.047%. Moreover, the viability at 1 µM in the series with Jurkat [7] was 82.3%. Also, the inhibition entry in series [14] was “Active”. Further, the viability at 0.1 µM in the series with THP-1 [17] came out at 66.8%.
